Measurements published in US20230272357A1, “METHODS OF GENOME EDITING INCLUDING CONTROLLED OPENING OF CHROMATIN” (Wisconsin Alumni Research Foundation, priority 2021, published 2023).

Assays:
Type in all cases: cell-based, human
iPSCs [1] = test: Bulk RNA sequencing of TSA-treated iPSCs; conditions: edited clones from 6.25 ng/mL TSA, data not shown
Procedure: RNA extraction and Bulk RNA sequencing: RNA was extracted from iPSCs in one well of 6-well plate using the GenElute™ Total RNA Purification Kit (Millipore Sigma) according to the manufacturer's instructions. RNA was then quantified using Nanodrop™ 2000 (ThermoFisher Scientific) and the integrity of samples were confirmed with the following three criteria for inclusion: 1) a concentration>50 ng/ml, 2) an A260/A280 rating of 1.8 and 2.1, and 3) an A260/A230 ratio>1.8. Total RNA was submitted to the University of Wisconsin-Madison Biotechnology Center and was verified for purity and integrity via the NanoDrop™ One Spectrophotometer and Agilent 2100 BioAnalyzer, respectively. Samples that met the Illumina® sample input guidelines were prepared according to the TruSeq®Stranded Total Sample Preparation Guide (1000000040499 v00) using the Illumina® TruSeq ® Stranded Total Sample Preparation kits (Illumina Inc., San Diego, Calif., USA) and sequenced on an Illumina® NovaSeg™ 6000 system at a run length 2×150 bp and target read depth of 30 million reads/sample at the University of Wisconsin—Madison Biotechnology Center. […] Normalized counts were then extracted and genes with read counts <10 were filtered out. Fold change was then calculated as the ratio of the reads of the TSA-treated iPSCs to the untreated iPSCs.

iPSCs [2] = test: Cell viability by Ghost Dye Red 780 flow cytometry
Procedure: Cell viability: Flow cytometry was performed using Ghost Dye™ Red 780 viability dye (Tonbo Biosciences) to determine the dose range of the TSA that can be administrated to the cells without affecting cell viability. iPSCs (15,000 per well) were cultured overnight and incubated with TSA in 96-well plates for 24 h. The next day, cells were singularized using Accutase™ (STEMCELL technologies), washed with PBS, centrifuged at 300 g for 5 minutes, and Ghost Dye™ Red 780 viability dye was added at 1:1000 concentration for 20 minutes at room temperature. Cells were then washed with PBS, spun down at 300g for 5 minutes, and resuspended in 300 μL of PBS. Cells were run on an Attune NxT™ flow cytometer (Thermo Fisher Scientific) and subsequent analysis was performed using Flowjo software (BD).
Flow cytometry and fluorescence activated cell sorting: Flow cytometry was performed on singularized iPSCs using Attune™ Nxt flow cytometer (ThermoFisher Scientific) and analyzed using the FlowJo Software. Ghost Dye™ Red 780, ATTO 550, and GFP fluorescence were detected using 780/60, 585/16, and 530/30 filters in […] positions, respectively. Gates were established by running singularized untransfected iPSCs. The percentage of viable cells was calculated as the ratio of Ghost Dye™ Red 780-cells to the total number of single cells. Transfection efficiency was calculated as the percentage of ATTO 550+ cells to the total number of viable cells on day 2 post-transfection. Gene editing efficiency was calculated as the percentage of GFP-cells to the total number of viable cells on day 6 post-transfection. For the sorting experiments, iPSCs were singularized 6 days post-transfection using Accutase™, washed with PBS+20 μM ROCK inhibitor, centrifuged at 300 g for 5 minutes. Ghost Dye™ Red 780 viability dye (Tonbo Biosciences) was then added at 1:1000 concentration for 20 minutes at room temperature. Cells were washed again with PBS+20 μM ROCK inhibitor, spun down at 300 g for 5 minutes, and resuspended in 300 μL of FACS buffer (PBS+2% BSA+20 μM ROCK inhibitor). GFP-cells were then sorted into tubes containing mTeSR1+20 μM ROCK inhibitor, and seeded onto Matrigel®-coated 6 well polystyrene plates at 100 cells/well to obtain single-cell iPSC clones.

[3] = tested on: on-target and top off-target sites of HIST1H2BJ-GFP, AAVS1 S10, EMX1; test: Off-target analysis of edited iPSCs (CHANGE-seq/GUIDE-seq sites, rhAmpSeq)
Procedure: Genome-wide, off-target analysis: Genomic DNA from iPSCs was isolated using Gentra® Puregene® Kit (Qiagen) according to the manufacturer's instructions. CHANGE-seq was performed as described in the art. Briefly, purified genomic DNA was tagmented with a custom Tn5-transposome to an average length of 400 bp, followed by gap repair with Kapa HiFi HotStart Uracil+DNA Polymerase (KAPA Biosystems) and Taq DNA ligase (NEB). Gap-repaired tagmented DNA was treated with USER™ enzyme (NEB) and T4 polynucleotide kinase (NEB). Intramolecular circularization of the DNA was performed with T4 DNA ligase (NEB) and residual linear DNA was degraded by a cocktail of exonucleases containing Plasmid-Safe ATP-dependent DNase (Lucigen), Lambda exonuclease (NEB), and Exonuclease I (NEB). In vitro cleavage reactions were performed with 125 ng of exonuclease-treated circularized DNA, 90 nM of SpCas9 protein (NEB), NEB buffer 3.1 (NEB) and 270 nM of sgRNA, in a 50 μL volume. Cleaved products were A-tailed, ligated with a hairpin adaptor (NEB), treated with USER™ enzyme (NEB), and amplified by PCR with barcoded universal primers NEBNext® Multiplex Oligos for Illumina® (NEB), using Kapa HiFi Polymerase (KAPA Biosystems). Libraries were quantified by qPCR (KAPA Biosystems) and sequenced with 151 bp paired-end reads on an Illumina® NextSeq instrument. CHANGE-seq data analyses were performed using open-source CHANGE-seq analysis software.
To determine the indel frequency at CHANGE-seq-identified off-target sites, on and off-target sites for were amplified from iPSC genomic DNA obtained using rhAmpSeg™ system (IDT), and sequencing libraries were generated according to the manufacturer's instructions. Sequencing was then performed with 150-bp paired-end reads on an Illumina® Miniseq instrument. Analysis was performed using CRISPAltRations: IDT rhAmpSeq CRISPR analysis tool.
Highly sensitive genome-wide, off-target analysis for our TSA-based editing strategy was assayed by CHANGE-seq at HIST1H2BJ-GFP site, which yielded a frequency distribution of the potential off-target sites (FIG. 3A,B). Top 12 off-target sites were amplified from genomic DNA using the rhAmp-Seq system (IDT) and subsequently sequenced using the Illumina® MiniSeq™ system. Sequencing data was then analyzed using the CRISPAltRations tool, which allowed for quantitative analysis of observed indel mutations (data not shown). […] Furthermore, the highest normalized on-target edit ratio was obtained for TSA concentration of 6.25 ng/mL, representative of the optimal TSA concentration for generating gene editing iPSCs.

[4] = HIST1H2BJ-GFP, AAVS1 S10, EMX1, with TSA concentration, FIG. 3C-E

CC(/C=C/C(=O)NO)=C\[C@@H](C)C(=O)c1ccc(N(C)C)cc1 [TSA, Trichostatin A]
Gene expression of pluripotency marker genes (OCT4, NANOG, SOX2, TRA-1-60) (iPSCs [1]): did not decrease | Cell toxicity (iPSCs [2]; 12.5 ng/mL TSA, FIG. 1E): higher cell toxicity | Cell viability (% GhostDye- cells/total cells) (iPSCs [2]; TSA 0, 3.13, 6.25, 12.5 ng/mL, FIG. 1D): decreases | Cell viability (iPSCs [2]; iPSCs, TSA 0-200 ng/mL, data not shown): decreased with the increase in TSA concentration | TSA concentration with considerable decrease in cell viability (iPSCs [2]; iPSCs, TSA range 0-200 ng/mL tested): > 25 ng/mL | TSA concentration giving highest normalized on-target edit ratio ([3]; AAVS1 S10 and EMX1 loci): 6.25 ng/mL | TSA concentration giving highest normalized on-target edit ratio ([3]; HIST1H2BJ-GFP site): 6.25 ng/mL | TSA concentration giving highest normalized on-target edit ratio ([3]; HIST1H2BJ-GFP, AAVS1 S10, EMX1, FIG. 3C-E): 6.25 ng/mL | Off-target indel % [3, 4]: remains the same | On-target indel % [3, 4]: increases | Indel % at off-target sites ([3]; top 12 off-target sites of HIST1H2BJ-GFP, upon TSA treatment): did not increase | Indel % at off-target sites ([3]; top off-target sites for AAVS1 S10 and EMX1 loci): no significant increase
